In the supplement of paper PMC9337992:

Experiments:
Test in all cases: cell confluence relative to DMSO control; higher = less growth inhibition
Details in all cases: 5 d
MDA-MB-157 = tested on: MDA-MB-157
Experimental: (§1)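 MS023 dose-response (9 concentrations, 40 nM to 10 uM) across TNBC cell lines. Cell confluence was monitored by IncuCyte live-cell imaging for 5 d and normalised to DMSO; n = 4 replicates.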

MDAMB231 = tested on: MDAMB231
Experimental: as §1

HCC1395 = tested on: HCC1395
Experimental: as §1

BT20 = tested on: BT20
Experimental: as §1

HCC1143 = tested on: HCC1143
Experimental: as §1

BT549 = tested on: BT549
Experimental: as §1

SUM149 = tested on: SUM149
Experimental: as §1

HCC1806 = tested on: HCC1806
Experimental: as §1

HCC70 = tested on: HCC70
Experimental: as §1

CAL120 = tested on: CAL120
Experimental: as §1

CAL85-1 = tested on: CAL85-1
Experimental: as §1

SUM159 = tested on: SUM159
Experimental: as §1

MX1 = tested on: MX1
Experimental: as §1

Hs578T = tested on: Hs578T
Experimental: as §1

MDA-MB468 = tested on: MDA-MB468
Experimental: as §1

HCC3153 = tested on: HCC3153
Experimental: as §1

HCC38 = tested on: HCC38
Experimental: as §1

MDA-MB436 = tested on: MDA-MB436
Experimental: as §1

CC(C)Oc1ccc(-c2c[nH]cc2CN(C)CCN)cc1 [MS023]
cell confluence [%]
Details	log10 MS023 concentration (log10 uM): 0.09691	log10 MS023 concentration (log10 uM): 0.39794	log10 MS023 concentration (log10 uM): 0.69897	log10 MS023 concentration (log10 uM): 1	log10 MS023 concentration (log10 uM): -0.20412	log10 MS023 concentration (log10 uM): -0.50515	log10 MS023 concentration (log10 uM): -0.80618	log10 MS023 concentration (log10 uM): -1.10721	log10 MS023 concentration (log10 uM): -1.40824
BT20	102	98.2	99.8	91.7	100	102	101	93.8	96.5
BT549	91.8	85.7	61.5	53.4	99.5	97.3	103	109	98.8
CAL85-1	84.2	70.6	59.1	39.6	95.4	98.7	99.6	98.1	96
CAL120	100.06	100.1	100	99.59	100.2	99.99	100.2	100	100.1
HCC38	95.7	86.4	76.9	60.3	98.1	99.1	100	100.3	100.1
HCC70	73.3	67.8	54.4	39.5	86	80	91.3	89.3	96.6
HCC1143	84.3	52.5	26	21.1	82.8	89.9	96.6	100	98.5
HCC1395	101	92.8	70.3	53.3	102	107	107	108	108
HCC1806	94.2	97.4	84.6	66.6	100	100	100	101	103
HCC3153	95	85.4	67.3	51.9	98.1	98.44	99.3	99.5	98.93
Hs578T	99.47	97.79	89.9	79.6	99.79	99.921	99.933	99.898	99.921
MDA-MB436	70.9	33.6	24.4	22.9	78.1	82.9	97.9	96.2	100
MDA-MB468	58.7	35.8	36.3	25.3	79.5	95.1	94.8	96.2	98.5
MDA-MB-157	93.1	93.3	88.9	81.4	95.6	101	99.7	100	98.2
MDAMB231	96.77	88.2	71	61.1	99.56	99.8	99.9	99.943	99.978
MX1	93.6	83.1	48.8	33.3	95.8	100	99.8	97.8	98.4
SUM149	94.1	79.9	53.5	38.4	99.14	98.7	97.9	99.1	95.4
SUM159	93	49.6	25.1	26.3	98.2	99.11	99.03	99.4	98.1
